Data published in patent US11414379B2, “SPAK kinase inhibitors as neuroprotective agents” (United States Government as represented by the Department …, priority 2018, dated 2022).

Experiments:
Assay in all cases: Kinase panel (Dundee profiling)
Assay type in all cases: biochemical
Details in all cases: read-out: % residual kinase activity
PDGFRA = PDGFRA (Homo sapiens, UniProt P16234)
Description: (§1) The kinase selectivity of ZT-1a was further assessed using standard radioisotopic enzymatic assays against a panel of 140 recombinant kinases (Dundee profiling, Table 2) (Bain et al. (2007) The Biochemical journal 408, 297-315). ZT-1a at a concentration of 10 μM inhibited only MAPKAP-K2 activity 85±7% compared to DMSO control, representing high kinase selectivity.
(§2) Referring to Table 2, ZT-1a was tested at 10 and 1 μM against a panel of 140 recombinant kinases in an enzymatic activity-based assay performed by the International Centre for Kinase Profiling in the MRC Protein Phosphorylation and Ubiquitylation Unit. Values represent % residual kinase activity (mean+/−SEM, n=3). Kinases labelled with an asterick* are inhibited ≥50% by ZT-1a.

IRAK1 = IRAK1 (Homo sapiens, UniProt P51617)
Description: as §1, §2

CLK2 = CLK2 (Homo sapiens, UniProt P49760)
Description: as §1, §2

TTBK2 = TTBK2 (Homo sapiens, UniProt Q6IQ55)
Description: as §1, §2

PRAK = PRAK (Homo sapiens, UniProt Q8IW41)
Description: as §1, §2

CK1γ2 = CK1γ2 (Homo sapiens, UniProt P78368)
Description: as §1, §2

RSK1 = RSK1 (Homo sapiens, UniProt Q15418)
Description: as §1, §2

CAMKKb = CAMKKb (Homo sapiens, UniProt Q96RR4)
Description: as §1, §2

SRPK1 = SRPK1 (Homo sapiens, UniProt Q96SB4)
Description: as §1, §2

MEKK1 = MEKK1 (Homo sapiens, UniProt Q13233)
Description: as §1, §2

PAK2 = PAK2 (Homo sapiens, UniProt Q13177)
Description: as §1, §2

CAMK1 = CAMK1 (Homo sapiens, UniProt Q14012)
Description: as §1, §2

TLK1 = TLK1 (Homo sapiens, UniProt Q9UKI8)
Description: as §1, §2

PAK5 = PAK5 (Homo sapiens, UniProt Q9P286)
Description: as §1, §2

ASK1 = ASK1 (Homo sapiens, UniProt Q99683)
Description: as §1, §2

SmMLCK = SmMLCK (Homo sapiens, UniProt Q15746)
Description: as §1, §2

MLK1 = MLK1 (Homo sapiens, UniProt P80192)
Description: as §1, §2

TGFBR1 = TGFBR1 (Homo sapiens, UniProt P36897)
Description: as §1, §2

ERK8 = ERK8 (Homo sapiens, UniProt Q8TD08)
Description: as §1, §2

MKK6 = MKK6 (Homo sapiens, UniProt P52564)
Description: as §1, §2

MARK4 = MARK4 (Homo sapiens, UniProt Q96L34)
Description: as §1, §2

CK1δ = CK1δ (Homo sapiens, UniProt P48730)
Description: as §1, §2

EPH-A4 = EPH-A4 (Homo sapiens, UniProt P54764)
Description: as §1, §2

PAK4 = PAK4 (Homo sapiens, UniProt O96013)
Description: as §1, §2

IGF-1R = IGF-1R (Homo sapiens, UniProt P08069)
Description: as §1, §2

PLK1 = PLK1 (Homo sapiens, UniProt P53350)
Description: as §1, §2

ABL = ABL (Homo sapiens, UniProt P00519)
Description: as §1, §2

HIPK1 = HIPK1 (Homo sapiens, UniProt Q86Z02)
Description: as §1, §2

ERK1 = ERK1 (Homo sapiens, UniProt P27361)
Description: as §1, §2

IR = IR (Homo sapiens, UniProt P06213)
Description: as §1, §2

ERK2 = ERK2 (Homo sapiens, UniProt P28482)
Description: as §1, §2

LKB1 = LKB1 (Homo sapiens, UniProt Q15831)
Description: as §1, §2

Sequence of TTBK2 (Q6IQ55 whole entry, species assumed): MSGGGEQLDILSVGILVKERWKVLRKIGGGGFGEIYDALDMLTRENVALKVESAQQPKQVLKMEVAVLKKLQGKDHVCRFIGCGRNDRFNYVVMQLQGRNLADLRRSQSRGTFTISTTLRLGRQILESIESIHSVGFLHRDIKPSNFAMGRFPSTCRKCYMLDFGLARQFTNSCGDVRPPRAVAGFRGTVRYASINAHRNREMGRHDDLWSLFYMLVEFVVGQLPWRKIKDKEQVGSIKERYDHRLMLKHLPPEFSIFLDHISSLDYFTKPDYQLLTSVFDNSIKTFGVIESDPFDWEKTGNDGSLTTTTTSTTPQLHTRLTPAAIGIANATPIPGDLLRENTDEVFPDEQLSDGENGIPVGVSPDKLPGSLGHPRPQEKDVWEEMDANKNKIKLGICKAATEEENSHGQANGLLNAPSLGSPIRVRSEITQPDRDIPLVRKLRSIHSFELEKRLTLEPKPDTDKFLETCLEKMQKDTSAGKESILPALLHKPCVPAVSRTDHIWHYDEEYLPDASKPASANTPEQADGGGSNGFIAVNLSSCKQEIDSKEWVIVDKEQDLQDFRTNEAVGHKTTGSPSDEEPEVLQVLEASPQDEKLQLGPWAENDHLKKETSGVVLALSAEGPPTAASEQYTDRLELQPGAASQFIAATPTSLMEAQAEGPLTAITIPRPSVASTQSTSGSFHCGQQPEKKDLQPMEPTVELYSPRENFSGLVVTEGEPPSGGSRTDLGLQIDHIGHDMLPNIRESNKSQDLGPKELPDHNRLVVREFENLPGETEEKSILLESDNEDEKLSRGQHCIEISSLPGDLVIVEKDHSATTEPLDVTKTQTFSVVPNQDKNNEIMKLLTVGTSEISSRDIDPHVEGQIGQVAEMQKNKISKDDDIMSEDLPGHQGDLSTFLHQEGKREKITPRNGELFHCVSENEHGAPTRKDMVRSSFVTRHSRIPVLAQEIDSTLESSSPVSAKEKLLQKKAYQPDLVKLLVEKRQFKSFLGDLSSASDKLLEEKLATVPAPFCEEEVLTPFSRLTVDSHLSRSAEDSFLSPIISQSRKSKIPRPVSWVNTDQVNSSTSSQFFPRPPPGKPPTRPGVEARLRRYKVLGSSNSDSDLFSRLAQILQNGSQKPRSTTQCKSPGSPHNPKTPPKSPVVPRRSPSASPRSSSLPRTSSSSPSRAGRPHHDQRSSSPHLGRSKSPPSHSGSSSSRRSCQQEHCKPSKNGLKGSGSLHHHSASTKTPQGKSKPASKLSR
Sequence of LKB1 (Q15831 whole entry, species assumed): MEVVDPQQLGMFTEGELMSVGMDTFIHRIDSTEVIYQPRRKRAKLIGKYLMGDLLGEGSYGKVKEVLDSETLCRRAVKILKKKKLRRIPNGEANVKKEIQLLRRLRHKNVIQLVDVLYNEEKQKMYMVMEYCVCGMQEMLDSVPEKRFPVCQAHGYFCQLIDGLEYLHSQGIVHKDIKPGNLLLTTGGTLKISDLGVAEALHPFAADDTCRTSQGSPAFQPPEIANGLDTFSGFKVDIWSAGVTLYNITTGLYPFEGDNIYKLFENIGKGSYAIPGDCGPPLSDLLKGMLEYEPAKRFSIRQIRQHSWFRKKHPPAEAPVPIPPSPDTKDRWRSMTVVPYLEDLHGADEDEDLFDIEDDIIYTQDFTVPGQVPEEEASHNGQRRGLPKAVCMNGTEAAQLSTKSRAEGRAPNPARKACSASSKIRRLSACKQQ
Sequence of LKB1 (Q7RTN6 whole entry partner, species assumed): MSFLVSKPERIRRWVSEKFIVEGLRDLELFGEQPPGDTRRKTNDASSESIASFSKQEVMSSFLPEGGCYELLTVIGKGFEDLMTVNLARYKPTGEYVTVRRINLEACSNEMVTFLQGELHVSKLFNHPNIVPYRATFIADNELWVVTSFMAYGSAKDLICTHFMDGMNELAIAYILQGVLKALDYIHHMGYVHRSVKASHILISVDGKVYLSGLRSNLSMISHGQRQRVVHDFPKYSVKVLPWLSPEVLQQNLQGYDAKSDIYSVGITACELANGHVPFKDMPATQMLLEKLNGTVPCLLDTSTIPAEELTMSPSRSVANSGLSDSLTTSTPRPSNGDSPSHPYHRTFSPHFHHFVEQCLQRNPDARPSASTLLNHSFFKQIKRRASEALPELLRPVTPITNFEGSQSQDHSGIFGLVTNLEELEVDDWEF
Sequence of LKB1 (Q9Y376 whole entry partner, species assumed): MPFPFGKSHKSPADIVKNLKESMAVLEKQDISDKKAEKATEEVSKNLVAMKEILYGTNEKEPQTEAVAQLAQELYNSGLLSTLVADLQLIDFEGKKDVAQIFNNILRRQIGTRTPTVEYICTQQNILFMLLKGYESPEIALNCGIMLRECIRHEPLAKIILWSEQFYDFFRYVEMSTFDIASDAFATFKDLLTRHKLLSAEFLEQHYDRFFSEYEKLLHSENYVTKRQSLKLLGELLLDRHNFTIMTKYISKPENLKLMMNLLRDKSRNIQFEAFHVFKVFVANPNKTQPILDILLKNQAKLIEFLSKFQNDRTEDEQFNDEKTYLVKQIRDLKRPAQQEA
Sequence of HIPK1 (Q86Z02 whole entry, species assumed): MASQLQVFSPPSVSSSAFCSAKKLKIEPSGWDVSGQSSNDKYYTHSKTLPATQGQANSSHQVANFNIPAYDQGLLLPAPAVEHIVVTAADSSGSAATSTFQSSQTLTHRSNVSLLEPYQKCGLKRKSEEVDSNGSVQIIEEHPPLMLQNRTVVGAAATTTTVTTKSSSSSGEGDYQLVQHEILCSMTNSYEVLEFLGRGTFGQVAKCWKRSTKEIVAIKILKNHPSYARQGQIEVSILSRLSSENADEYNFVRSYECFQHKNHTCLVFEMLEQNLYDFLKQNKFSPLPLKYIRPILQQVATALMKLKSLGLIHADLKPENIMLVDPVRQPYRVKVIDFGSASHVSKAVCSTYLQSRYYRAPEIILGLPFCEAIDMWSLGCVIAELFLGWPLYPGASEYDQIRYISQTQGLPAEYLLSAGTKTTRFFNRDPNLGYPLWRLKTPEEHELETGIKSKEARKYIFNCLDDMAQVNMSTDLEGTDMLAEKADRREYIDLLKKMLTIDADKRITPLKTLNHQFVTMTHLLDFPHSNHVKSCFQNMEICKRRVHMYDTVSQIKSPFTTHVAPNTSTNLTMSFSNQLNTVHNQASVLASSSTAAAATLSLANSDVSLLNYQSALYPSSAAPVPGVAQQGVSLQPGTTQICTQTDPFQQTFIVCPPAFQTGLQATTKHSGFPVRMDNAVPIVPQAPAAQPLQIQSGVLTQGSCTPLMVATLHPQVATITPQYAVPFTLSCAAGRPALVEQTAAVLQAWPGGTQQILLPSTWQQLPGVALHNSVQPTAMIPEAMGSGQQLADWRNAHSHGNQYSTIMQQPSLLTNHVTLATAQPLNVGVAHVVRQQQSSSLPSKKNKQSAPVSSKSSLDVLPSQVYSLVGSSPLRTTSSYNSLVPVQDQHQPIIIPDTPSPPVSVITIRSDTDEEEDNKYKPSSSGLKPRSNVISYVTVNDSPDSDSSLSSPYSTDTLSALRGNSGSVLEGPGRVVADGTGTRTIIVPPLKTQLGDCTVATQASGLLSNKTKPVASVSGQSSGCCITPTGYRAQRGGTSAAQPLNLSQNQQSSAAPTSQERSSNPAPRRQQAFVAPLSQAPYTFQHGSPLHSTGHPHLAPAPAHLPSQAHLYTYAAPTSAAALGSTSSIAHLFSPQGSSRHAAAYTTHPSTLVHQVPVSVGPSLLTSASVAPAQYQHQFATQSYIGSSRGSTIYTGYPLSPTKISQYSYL
Sequence of TLK1 (Q9UKI8 whole entry, species assumed): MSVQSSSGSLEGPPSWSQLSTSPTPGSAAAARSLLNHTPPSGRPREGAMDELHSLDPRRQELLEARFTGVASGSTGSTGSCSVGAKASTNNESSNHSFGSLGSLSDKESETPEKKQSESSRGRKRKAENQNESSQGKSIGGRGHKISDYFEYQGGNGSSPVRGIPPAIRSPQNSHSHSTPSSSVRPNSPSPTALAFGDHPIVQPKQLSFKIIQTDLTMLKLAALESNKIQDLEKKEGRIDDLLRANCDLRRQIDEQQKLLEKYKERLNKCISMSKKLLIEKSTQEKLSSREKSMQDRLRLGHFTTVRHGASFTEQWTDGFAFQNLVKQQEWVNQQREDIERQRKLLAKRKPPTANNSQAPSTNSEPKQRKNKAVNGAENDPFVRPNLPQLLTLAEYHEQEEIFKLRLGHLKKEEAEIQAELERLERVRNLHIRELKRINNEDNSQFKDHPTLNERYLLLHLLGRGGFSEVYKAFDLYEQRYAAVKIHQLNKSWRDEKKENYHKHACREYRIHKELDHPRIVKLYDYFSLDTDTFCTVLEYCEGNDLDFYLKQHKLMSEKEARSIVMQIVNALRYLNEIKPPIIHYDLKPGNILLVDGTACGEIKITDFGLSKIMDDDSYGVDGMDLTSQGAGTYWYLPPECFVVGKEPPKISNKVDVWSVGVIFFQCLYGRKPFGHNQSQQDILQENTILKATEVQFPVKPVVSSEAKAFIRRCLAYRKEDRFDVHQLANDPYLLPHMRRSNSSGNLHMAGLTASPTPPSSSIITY
Sequence of CK1γ2 (P78368 whole entry): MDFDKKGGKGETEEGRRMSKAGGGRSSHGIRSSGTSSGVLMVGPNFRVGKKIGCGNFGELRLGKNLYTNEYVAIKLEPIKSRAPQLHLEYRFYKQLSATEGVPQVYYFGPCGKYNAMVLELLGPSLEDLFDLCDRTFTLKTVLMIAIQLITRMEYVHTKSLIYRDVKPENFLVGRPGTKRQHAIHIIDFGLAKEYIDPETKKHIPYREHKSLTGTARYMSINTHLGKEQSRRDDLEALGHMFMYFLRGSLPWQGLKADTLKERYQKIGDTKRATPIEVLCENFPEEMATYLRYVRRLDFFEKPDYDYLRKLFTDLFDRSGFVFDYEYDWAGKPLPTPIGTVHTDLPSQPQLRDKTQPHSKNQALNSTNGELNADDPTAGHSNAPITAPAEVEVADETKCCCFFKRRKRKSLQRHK

In the case of `Cc1cc(C(C#N)c2ccc(Cl)cc2)c(Cl)cc1NC(=O)c1cc(Cl)ccc1O` (stereo not shown) [ZT-1a, 5-chloro-N-(5-chloro-4-((4-chlorophenyl)(cyano)methyl)-2-methylphenyl)-2-hydroxy-benzamide], the remaining activity at 1 µM (PDGFRA; 1 μM) is reported as 84 ± 11%, the remaining activity at 10 µM (PDGFRA; 10 μM) is reported as 80 ± 7% and the remaining activity at 1 µM (IRAK1; 1 μM) is reported as 128 ± 2%. The remaining activity at 10 µM (IRAK1; 10 μM) was 95 ± 7%, the remaining activity at 1 µM (CLK2; 1 μM) was 68 ± 12% and the remaining activity at 10 µM (CLK2; 10 μM) was 33 ± 45%. It also gave a remaining activity at 1 µM (TTBK2; 1 μM) of 101 ± 32%, a remaining activity at 10 µM (TTBK2; 10 μM) of 98 ± 34% and a remaining activity at 1 µM (PRAK; 1 μM) of 78 ± 13%. The remaining activity at 10 µM (PRAK; 10 μM) was 41 ± 7%, the remaining activity at 1 µM (CK1γ2; 1 μM) was 112 ± 12% and the remaining activity at 10 µM (CK1γ2; 10 μM) was 124 ± 23%. For the same compound, the remaining activity at 1 µM (RSK1; 1 μM) was 95 ± 2%, the remaining activity at 10 µM (RSK1; 10 μM) was 87 ± 4% and the remaining activity at 1 µM (CAMKKb; 1 μM) was 115 ± 10%. For the same compound, the remaining activity at 10 µM (CAMKKb; 10 μM) was 102 ± 9%, the remaining activity at 1 µM (SRPK1; 1 μM) was 104 ± 5% and the remaining activity at 10 µM (SRPK1; 10 μM) was 73 ± 20%. For the same compound, the remaining activity at 1 µM (MEKK1; 1 μM) was 109 ± 1%, the remaining activity at 10 µM (MEKK1; 10 μM) was 93 ± 16% and the remaining activity at 1 µM (PAK2; 1 μM) was 110 ± 4%. The remaining activity at 10 µM (PAK2; 10 μM) was 93 ± 8%, the remaining activity at 1 µM (CAMK1; 1 μM) was 60 ± 5% and the remaining activity at 10 µM (CAMK1; 10 μM) was 71 ± 31%. For the same compound, the remaining activity at 1 µM (TLK1; 1 μM) was 130 ± 13%, the remaining activity at 10 µM (TLK1; 10 μM) was 124 ± 4% and the remaining activity at 1 µM (PAK5; 1 μM) was 93 ± 26%. The remaining activity at 10 µM (PAK5; 10 μM) was 93 ± 4%, the remaining activity at 1 µM (ASK1; 1 μM) was 101 ± 3% and the remaining activity at 10 µM (ASK1; 10 μM) was 100 ± 11%. It also gave a remaining activity at 1 µM (SmMLCK; 1 μM) of 99 ± 3%, a remaining activity at 10 µM (SmMLCK; 10 μM) of 98 ± 9% and a remaining activity at 1 µM (MLK1; 1 μM) of 94 ± 4%. It also gave a remaining activity at 10 µM (MLK1; 10 μM) of 81 ± 21%, a remaining activity at 1 µM (TGFBR1; 1 μM) of 63 ± 9% and a remaining activity at 10 µM (TGFBR1; 10 μM) of 77 ± 5%. It also gave a remaining activity at 1 µM (ERK8; 1 μM) of 104 ± 11%, a remaining activity at 10 µM (ERK8; 10 μM) of 63 ± 3% and a remaining activity at 1 µM (MKK6; 1 μM) of 102 ± 12%. It also gave a remaining activity at 10 µM (MKK6; 10 μM) of 82 ± 16%, a remaining activity at 1 µM (MARK4; 1 μM) of 68 ± 8% and a remaining activity at 10 µM (MARK4; 10 μM) of 59 ± 9%. For the same compound, the remaining activity at 1 µM (CK1δ; 1 μM) was 116 ± 5%, the remaining activity at 10 µM (CK1δ; 10 μM) was 114 ± 9% and the remaining activity at 1 µM (EPH-A4; 1 μM) was 59 ± 33%. It also gave a remaining activity at 10 µM (EPH-A4; 10 μM) of 90 ± 11%, a remaining activity at 1 µM (PAK4; 1 μM) of 81 ± 16% and a remaining activity at 10 µM (PAK4; 10 μM) of 51 ± 3%. For the same compound, the remaining activity at 1 µM (IGF-1R; 1 μM) was 145 ± 2%, the remaining activity at 10 µM (IGF-1R; 10 μM) was 123 ± 3% and the remaining activity at 1 µM (PLK1; 1 μM) was 72 ± 1%. It also gave a remaining activity at 10 µM (PLK1; 10 μM) of 93 ± 21%, a remaining activity at 1 µM (ABL; 1 μM) of 85 ± 4% and a remaining activity at 10 µM (ABL; 10 μM) of 68 ± 16%. For the same compound, the remaining activity at 1 µM (HIPK1; 1 μM) was 98 ± 13%, the remaining activity at 10 µM (HIPK1; 10 μM) was 90 ± 4% and the remaining activity at 1 µM (ERK1; 1 μM) was 107 ± 16%. The remaining activity at 10 µM (ERK1; 10 μM) was 109 ± 18%, the remaining activity at 1 µM (IR; 1 μM) was 105 ± 2% and the remaining activity at 10 µM (IR; 10 μM) was 86 ± 13%. The remaining activity at 1 µM (ERK2; 1 μM) was 111 ± 25%, the remaining activity at 10 µM (ERK2; 10 μM) was 75 ± 3% and the remaining activity at 1 µM (LKB1; 1 μM) was 107 ± 8%. The remaining activity at 10 µM (LKB1; 10 μM) was 115 ± 11%.
